The record followed here is DBAASP.

Among the test systems are Pseudomonas syringae; Bacillus subtilis; Botrytis cinerea; Escherichia coli; Fusarium verticillioides; Proteus vulgaris; Pseudomonas aeruginosa; Saccharomyces cerevisiae; Salmonella typhimurium; Staphylococcus aureus; Trichosporon beigelii.
Common to all, as to assay: ≥ marks a high value that may be exact or a test limit, other limits are often not marked, values filed in µg/mL are converted to µM
In assay [1] the test system is Xanthomonas axonopodis pv. phaseoli ATCC 9563.
Assay [2] has as its system Aspergillus niger CECT 2694.
Assay [3] deals with Fusarium oxysporum f. sp. lycopersici ATCC 201829.
Assay [4] relates to Penicillium expansum EPS 26.
In assay [5] the test system is Rhizopus stolonifer CECT 2344.
In assay [6] the test system is Bacillus subtilis KCTC 1998.
The test system of assay [7] is Escherichia coli ATCC 25922.
Assay [8] has as its system Listeria monocytogenes ATCC 3710.
In assay [9] the test system is Proteus vulgaris KCTC 2433.
The test system of assay [10] is Pseudomonas aeruginosa ATCC 15692.
In assay [11] the test system is Staphylococcus aureus ATCC 29213.
The test system of assay [12] is Escherichia coli K-12 594.
Assay [13] concerns Staphylococcus aureus ATCC 6538P.
Assay [14] relates to Staphylococcus aureus SR1550.
The test system of assay [15] is Aspergillus flavus KCTC 9471.
For assay [16], the system named is Aspergillus fumigatus KCTC 6145.
In assay [17] the test system is Candida albicans KCTC 7270.
Assay [18] has as its system Escherichia coli O157:H7 ATCC 43895.
Assay [19] has as its system Listeria monocytogenes KCTC 3710.
In assay [20] the test system is Staphylococcus epidermidis.
Assay [21] deals with Fusarium solani MTCC 10158.
Assay [22] relates to Micrococcus luteus DSM 20030.
Assay [23] deals with Salmonella typhimurium TA100.
Assay [24] concerns Candida albicans NCTC 3179.
Assay [25] relates to Staphylococcus aureus ATCC 25923.

Converted amounts (≈) assume the structure as drawn. “And” between values parts separate entries of the source, which are not always exact repeats. Identical values can stand only once.

The term MIC denotes the lowest concentration found to suppress growth. The low end stands for a more susceptible organism, the high end for a less susceptible organism. On to `CC[C@H](C)[C@H](NC(=O)[C@H](CCCCN)NC(=O)[C@H](CC(N)=O)NC(=O)[C@H](CCCCN)NC(=O)[C@H](CC(C)C)NC(=O)[C@H](Cc1ccc(O)cc1)NC(=O)[C@H](CCC(N)=O)NC(=O)[C@H](CCCN=C(N)N)NC(=O)[C@@H](NC(=O)[C@@H](NC(=O)[C@H](CCCCN)NC(=O)[C@H](CCCCN)NC(=O)CNC(=O)[C@H](C)N)[C@@H](C)O)[C@@H](C)CC)C(=O)N[C@@H](CCCCN)C(=O)N[C@@H](CCCCN)C(=O)N[C@@H](CCCCN)C(=O)NCC(=O)N[C@@H](CCCN=C(N)N)C(=O)N[C@@H](CCCCN)C(=O)N[C@@H](Cc1c[nH]c2ccccc12)C(=O)N[C@H](C(=O)N[C@H](C(=O)N[C@@H](C)C(=O)N[C@@H](Cc1c[nH]c2ccccc12)C(=O)O)[C@@H](C)CC)C(C)C` [AGKKTIRQYLKNKIKKKGRKWVIAW], for which the figures for the MIC (with Pseudomonas syringae; in [1]) were 8 µM (≈ 24.3 µg/mL) and 2 µM (≈ 6.09 µg/mL), respectively.
As to `CC[C@H](C)[C@H](NC(=O)[C@H](CCCCN)NC(=O)[C@H](CCCCN)NC(=O)[C@H](Cc1ccccc1)NC(=O)[C@H](CC(C)C)NC(=O)[C@H](CCCCN)NC(=O)[C@@H](N)Cc1c[nH]c2ccccc12)C(=O)N[C@@H](CC(C)C)C(=O)N[C@@H](CCCCN)C(=O)N[C@H](C(=O)N[C@@H](CC(C)C)C(=O)O)C(C)C` [WKLFKKILKVL], the minimum inhibitory concentration (MIC) in assay [2] was 22.4 µM (≈ 31.7 µg/mL); in [3], 22.4 µM (≈ 31.7 µg/mL); in assay [4] it was no less than 100 µM; in [5], no less than 100 µM.
Consider `CC[C@H](C)[C@H](NC(=O)[C@H](Cc1cnc[nH]1)NC(=O)[C@H](Cc1cnc[nH]1)NC(=O)[C@@H](NC(=O)[C@H](CC(C)C)NC(=O)[C@H](Cc1cnc[nH]1)NC(=O)CNC(=O)[C@H](CCCCN)NC(=O)CNC(=O)[C@H](Cc1cnc[nH]1)NC(=O)[C@H](CCCCN)NC(=O)[C@@H](NC(=O)[C@H](CO)NC(=O)CNC(=O)[C@H](CCCCN)NC(=O)[C@H](Cc1ccccc1)NC(=O)[C@H](CCCN=C(N)N)NC(=O)[C@H](CCCCN)NC(=O)[C@@H](N)Cc1ccccc1)C(C)C)C(C)C)C(=O)NCC(=O)N[C@H](C(=O)N[C@@H](C)C(=O)N[C@@H](CC(C)C)C(N)=O)C(C)C` [FKRFKGSVKHGKGHLVHHIGVAL], for which the MIC in assay [6] was 4 µM (≈ 10.2 µg/mL); in [7] it was 2 µM and 4 µM; in [8] it was 8 µM and 4 µM; in [9], 4 µM and 8 µM; in assay [10], ≥ 32 µM and 16 µM; in [11] it was 8 µM and 16 µM.
On to `CC(C)C[C@H](NC(=O)[C@H](Cc1cnc[nH]1)NC(=O)[C@H](CC(C)C)NC(=O)[C@H](CC(C)C)NC(=O)[C@H](CC(C)C)NC(=O)[C@H](CC(C)C)NC(=O)[C@H](CC(C)C)NC(=O)[C@H](Cc1cnc[nH]1)NC(=O)[C@H](CC(C)C)NC(=O)[C@@H](N)Cc1cnc[nH]1)C(=O)N[C@@H](Cc1cnc[nH]1)C(N)=O` [HLHLLLLLHLH], for which the minimum inhibitory concentration (MIC) in [12] turned out to be 25.8 µM (≈ 35 µg/mL); in [13] it was 11.8 µM (≈ 16 µg/mL); in assay [14], 25.8 µM (≈ 35 µg/mL).
Consider `CC[C@H](C)[C@H](NC(=O)[C@H](CCCCN)NC(=O)[C@H](CO)NC(=O)[C@H](Cc1ccccc1)NC(=O)[C@H](CC(C)C)NC(=O)[C@H](CCCCN)NC(=O)[C@H](CCC(=O)O)NC(=O)[C@H](CC(C)C)NC(=O)[C@H](CCCN=C(N)N)NC(=O)[C@H](CCCCN)NC(=O)[C@H](Cc1ccccc1)NC(=O)[C@@H](NC(=O)[C@H](CCCCN)NC(=O)[C@H](CCCCN)NC(=O)[C@H](C)N)C(C)C)C(=O)N[C@@H](Cc1ccccc1)C(=O)N[C@@H](CC(N)=O)C(=O)N[C@@H](Cc1ccccc1)C(=O)N[C@@H](CCCCN)C(N)=O` [AKKVFKRLEKLFSKIFNFK], for which the MIC in assay [15] was no less than 50 µM; in [16] it was no less than 35.4 µM; in the assay on Bacillus subtilis it was 1.56 µM (≈ 3.7 µg/mL); in the assay with Botrytis cinerea, 12.5 µM (≈ 29.6 µg/mL); in assay [17] it was 25 µM (≈ 59.3 µg/mL); in assay [18], 6.25 µM (≈ 14.8 µg/mL). Besides, the MIC against Escherichia coli was 3.13 µM (≈ 7.42 µg/mL); against Fusarium verticillioides it was 12.5 µM (≈ 29.6 µg/mL); in assay [19], 0.78 µM (≈ 1.85 µg/mL); with Proteus vulgaris it was 3.13 µM (≈ 7.42 µg/mL); in the assay with Pseudomonas aeruginosa it was 6.25 µM (≈ 14.8 µg/mL); with Saccharomyces cerevisiae, 25 µM (≈ 59.3 µg/mL). Further, the MIC with Salmonella typhimurium is 0.39 µM (≈ 0.925 µg/mL); in the assay on Staphylococcus aureus it was 3.13 µM (≈ 7.42 µg/mL); in assay [20], 6.25 µM (≈ 14.8 µg/mL); in the assay with Trichosporon beigelii, 3.13 µM (≈ 7.42 µg/mL).
As to `CC(C)C[C@H](NC(=O)[C@H](C)NC(=O)[C@H](CCCCN)NC(=O)[C@H](CC(C)C)NC(=O)[C@H](CCCCN)NC(=O)[C@H](CCCN=C(N)N)NC(=O)[C@H](CCCN=C(N)N)NC(=O)[C@H](Cc1c[nH]c2ccccc12)NC(=O)[C@H](C)N)C(=O)N[C@@H](C)C(=O)N1CCC[C@H]1C(=O)N[C@@H](C)C(=O)N[C@@H](CCCCN)C(=O)N[C@@H](CCCCN)C(=O)N[C@@H](C)C(=O)N[C@@H](CCCCN)C(=O)N[C@H](C(=O)O)C(C)C` [AWRRKLKALAPAKKAKV], in assay [21], the minimal inhibitory concentration (MIC) is 22.4 µM and ≥ 50 µM.
As to `CC(C)C[C@H](NC(=O)CNC(=O)[C@H](CCCCN)NC(=O)[C@H](CS)NC(=O)[C@@H](NC(=O)[C@H](CCCN=C(N)N)NC(=O)[C@H](CCCCN)NC(=O)[C@H](CC(N)=O)NC(=O)[C@H](CC(N)=O)NC(=O)[C@H](CCC(N)=O)NC(=O)[C@H](CCCN=C(N)N)NC(=O)[C@@H](NC(=O)[C@H](CS)NC(=O)[C@@H](N)CCCCN)C(C)C)C(C)C)C(=O)N[C@@H](CCCN=C(N)N)C(=O)N[C@@H](CCCCN)C(=O)N[C@@H](CCCN=C(N)N)C(=O)N[C@@H](CC(C)C)C(=O)N[C@@H](CCCN=C(N)N)C(=O)N[C@@H](CCCCN)C(=O)N[C@@H](Cc1ccccc1)C(=O)N[C@@H](CCCN=C(N)N)C(=O)N[C@@H](CC(N)=O)C(=O)N[C@@H](CCCCN)C(N)=O` [KCVRQNNKRVCKGLRKRLRKFRNK], the MIC in [22] was 13.5 µM (≈ 40.8 µg/mL); in assay [23] it was 12.6 µM (≈ 38.3 µg/mL).
Consider `CC[C@H](C)[C@H](NC(=O)[C@H](CCCCN)NC(=O)[C@@H](NC(=O)[C@@H](NC(=O)[C@H](C)NC(=O)[C@@H]1CCCN1C(=O)[C@H](CC(C)C)NC(=O)[C@H](Cc1c[nH]c2ccccc12)NC(=O)[C@@H](N)[C@@H](C)O)C(C)C)[C@@H](C)CC)C(=O)N[C@@H](CCC(N)=O)C(=O)N[C@@H](C)C(=O)N[C@@H](Cc1cnc[nH]1)C(=O)N[C@@H](Cc1c[nH]c2ccccc12)C(=O)N[C@@H](CCCN=C(N)N)C(=O)NCC(=O)N[C@@H](Cc1ccc(O)cc1)C(=O)N[C@@H](CCCN=C(N)N)C(=O)N[C@@H](CCC(N)=O)C(=O)N[C@@H](CCCN=C(N)N)C(=O)N[C@@H](CCCCN)C(=O)N[C@H](C(=O)N[C@@H](Cc1ccc(O)cc1)C(=O)N[C@@H](CC(C)C)C(=O)O)[C@@H](C)CC` [TWLPAVIKIQAHWRGYRQRKIYL], for which the MIC was found to be 24.8 µM (≈ 72 µg/mL) in assay [24], 1.97 µM (≈ 5.7 µg/mL) in [7] and 1.66 µM (≈ 4.8 µg/mL) in assay [25].
